Consider 25 compounds from patent US9822114B2, “Tricyclic oxazolidinone antibiotic compounds” (Idorsia Pharmaceuticals Ltd, priority 2008, dated 2017).

Converted amounts (≈) assume the structure as drawn.

The first experiment relates to M. catarrhalis A894. Description: Minimal inhibitory concentration (MIC), microdilution method in cation-adjusted Mueller-Hinton Broth (CLSI M7-A7). The format is cell-based. As to conditions: Moraxella catarrhalis, strain A894. As to the method:
Minimal inhibitory concentrations (MICs; mg/1) were determined in cation-adjusted Mueller-Hinton Broth by a microdilution method following the description given in “Methods for Dilution Antimicrobial Susceptibility Tests for Bacteria that Grow Aerobically”, Approved standard, 7th ed., Clinical and Laboratory Standards Institute (CLSI) Document M7-A7, Wayne, Pa., USA, 2006.
As for `O=C1CSc2ccc(N3C[C@@H](CCCN[C@@H]4Cn5c(=O)ccc6cccc4c65)OC3=O)nc2N1` [Example 137, (S)-1-{3-[(R)-2-oxo-3-(3-oxo-3,4-dihydro-2H-pyrido[3,2-b][1,4]thiazin-6-yl)-oxazolidin-5-yl]-propylamino}-1,2-dihydro-pyrrolo[3,2,1-ij]quinolin-4-one], the minimum inhibitory concentration (MIC) (as a rule, the least concentration at which growth counts as inhibited) is ≤ 0.031 µg/mL.

Turning to `O=C1CSc2ccc(N3C[C@@H](CCCN[C@H]4Cn5c(=O)ccc6ncc(F)c4c65)OC3=O)cc2N1` [Example 138, (R)-3-fluoro-4-{3-[(R)-2-oxo-3-(3-oxo-3,4-dihydro-2H-benzo[1,4]thiazin-6-yl)-oxazolidin-5-yl]-propylamino}-4,5-dihydro-pyrrolo[3,2,1-de][1,5]naphthyridin-7-one], the MIC was ≤ 0.031 µg/mL.

For `O=C1CSc2ccc(N3C[C@H](CCCN[C@H]4Cn5c(=O)ccc6ncc(F)c4c65)OC3=O)cc2N1` [Example 139, (R)-3-fluoro-4-{3-[(S)-2-oxo-3-(3-oxo-3,4-dihydro-2H-benzo[1,4]thiazin-6-yl)-oxazolidin-5-yl]-propylamino}-4,5-dihydro-pyrrolo[3,2,1-de][1,5]naphthyridin-7-one], the minimum inhibitory concentration (MIC) was ≤ 0.031 µg/mL.

As to `O=C1COc2ccc(N3C[C@@H](CCCN[C@H]4Cn5c(=O)ccc6ncc(F)c4c65)OC3=O)cc2N1` [Example 140, (R)-3-fluoro-4-{3-[(R)-2-oxo-3-(3-oxo-3,4-dihydro-2H-benzo[1,4]oxazin-6-yl)-oxazolidin-5-yl]-propylamino}-4,5-dihydro-pyrrolo[3,2,1-de][1,5]naphthyridin-7-one], the minimum inhibitory concentration (MIC) is ≤ 0.031 µg/mL.

Regarding `O=C1COc2ccc(N3C[C@H](CCCN[C@H]4Cn5c(=O)ccc6ncc(F)c4c65)OC3=O)cc2N1` [Example 141, (R)-3-fluoro-4-{3-[(S)-2-oxo-3-(3-oxo-3,4-dihydro-2H-benzo[1,4]oxazin-6-yl)-oxazolidin-5-yl]-propylamino}-4,5-dihydro-pyrrolo[3,2,1-de][1,5]naphthyridin-7-one], the MIC was ≤ 0.031 µg/mL.

In the case of `O=C1CSc2ccc(N3C[C@@H](CCCN[C@H]4Cn5c(=O)ccc6ncc(F)c4c65)OC3=O)nc2N1` [Example 142, (R)-3-fluoro-4-{3-[(R)-2-oxo-3-(3-oxo-3,4-dihydro-2H-pyrido[3,2-b][1,4]thiazin-6-yl)-oxazolidin-5-yl]-propylamino}-4,5-dihydro-pyrrolo[3,2,1-de][1,5]naphthyridin-7-one], the MIC was ≤ 0.031 µg/mL.

On to `O=C1CSc2ccc(N3C[C@H](CCCN[C@H]4Cn5c(=O)ccc6ncc(F)c4c65)OC3=O)nc2N1` [Example 143, (R)-3-fluoro-4-{3-[(S)-2-oxo-3-(3-oxo-3,4-dihydro-2H-pyrido[3,2-b][1,4]thiazin-6-yl)-oxazolidin-5-yl]-propylamino}-4,5-dihydro-pyrrolo[3,2,1-de][1,5]naphthyridin-7-one], for which the minimal inhibitory concentration (MIC) was ≤ 0.031 µg/mL.

In the case of `O=C1COc2ccc(N3C[C@H](CCCN[C@H]4Cn5c(=O)ccc6ncc(F)c4c65)OC3=O)nc2N1` [Example 144, (R)-3-fluoro-4-{3-[(S)-2-oxo-3-(3-oxo-3,4-dihydro-2H-pyrido[3,2-b][1,4]oxazin-6-yl)-oxazolidin-5-yl]-propylamino}-4,5-dihydro-pyrrolo[3,2,1-de][1,5]naphthyridin-7-one], the minimum inhibitory concentration (MIC) was ≤ 0.031 µg/mL.

As to `O=C1CSc2ccc(N3C[C@@H](CCCN[C@@H]4Cn5c(=O)ccc6ncc(F)c4c65)OC3=O)cc2N1` [Example 145, (S)-3-fluoro-4-{3-[(R)-2-oxo-3-(3-oxo-3,4-dihydro-2H-benzo[1,4]thiazin-6-yl)-oxazolidin-5-yl]-propylamino}-4,5-dihydro-pyrrolo[3,2,1-de][1,5]naphthyridin-7-one], the MIC was ≤ 0.031 µg/mL.

As for `O=C1COc2ccc(N3C[C@@H](CCCN[C@@H]4Cn5c(=O)ccc6ncc(F)c4c65)OC3=O)cc2N1` [Example 146, (S)-3-fluoro-4-{3-[(R)-2-oxo-3-(3-oxo-3,4-dihydro-2H-benzo[1,4]oxazin-6-yl)-oxazolidin-5-yl]-propylamino}-4,5-dihydro-pyrrolo[3,2,1-de][1,5]naphthyridin-7-one], the MIC is ≤ 0.031 µg/mL.

Regarding `O=C1CSc2ccc(N3C[C@@H](CCCN[C@@H]4Cn5c(=O)ccc6ncc(F)c4c65)OC3=O)nc2N1` [Example 147, (S)-3-fluoro-4-{3-[(R)-2-oxo-3-(3-oxo-3,4-dihydro-2H-pyrido[3,2-b][1,4]thiazin-6-yl)-oxazolidin-5-yl]-propylamino}-4,5-dihydro-pyrrolo[3,2,1-de][1,5]naphthyridin-7-one], the MIC is ≤ 0.031 µg/mL.

For the compound `O=C1CSc2ccc(N3C[C@H](CCCN[C@@H]4Cn5c(=O)ccc6ncc(F)c4c65)OC3=O)cc2N1` [Example 148, (S)-3-fluoro-4-{3-[(S)-2-oxo-3-(3-oxo-3,4-dihydro-2H-benzo[1,4]thiazin-6-yl)-oxazolidin-5-yl]-propylamino}-4,5-dihydro-pyrrolo[3,2,1-de][1,5]naphthyridin-7-one], the minimum inhibitory concentration (MIC) is ≤ 0.031 µg/mL.

Take `O=C1COc2ccc(N3C[C@H](CCCN[C@@H]4Cn5c(=O)ccc6ncc(F)c4c65)OC3=O)cc2N1` [Example 149, (S)-3-fluoro-4-{3-[(S)-2-oxo-3-(3-oxo-3,4-dihydro-2H-benzo[1,4]oxazin-6-yl)-oxazolidin-5-yl]-propylamino}-4,5-dihydro-pyrrolo[3,2,1-de][1,5]naphthyridin-7-one]: the MIC is ≤ 0.031 µg/mL.

`O=C1CSc2ccc(N3C[C@H](CCCN[C@@H]4Cn5c(=O)ccc6ncc(F)c4c65)OC3=O)nc2N1` [Example 150, (S)-3-fluoro-4-{3-[(S)-2-oxo-3-(3-oxo-3,4-dihydro-2H-pyrido[3,2-b][1,4]thiazin-6-yl)-oxazolidin-5-yl]-propylamino}-4,5-dihydro-pyrrolo[3,2,1-de][1,5]naphthyridin-7-one]: the minimal inhibitory concentration (MIC) was ≤ 0.031 µg/mL.

Consider `O=C1COc2ccc(N3C[C@H](CCCN[C@@H]4Cn5c(=O)ccc6ncc(F)c4c65)OC3=O)nc2N1` [Example 151, (S)-3-fluoro-4-{3-[(S)-2-oxo-3-(3-oxo-3,4-dihydro-2H-pyrido[3,2-b][1,4]oxazin-6-yl)-oxazolidin-5-yl]-propylamino}-4,5-dihydro-pyrrolo[3,2,1-de][1,5]naphthyridin-7-one], for which the MIC was ≤ 0.031 µg/mL.

The compound `O=C1COc2ccc(N3C[C@H](CCN[C@H]4Cn5c(=O)ccc6cccc4c65)OC3=O)cc2N1` [Example 157, (R)-1-{2-[(S)-2-oxo-3-(3-oxo-3,4-dihydro-2H-benzo[1,4]oxazin-6-yl)-oxazolidin-5-yl]-ethylamino}-1,2-dihydro-pyrrolo[3,2,1-ij]quinolin-4-one] returned a minimum inhibitory concentration (MIC) of 2 µg/mL (≈ 4.48 µM).

For `O=C1CSc2ccc(N3C[C@@H](CCN[C@H]4Cn5c(=O)ccc6cccc4c65)OC3=O)cc2N1` [Example 158, (R)-1-{2-[(R)-2-oxo-3-(3-oxo-3,4-dihydro-2H-benzo[1,4]thiazin-6-yl)-oxazolidin-5-yl]-ethylamino}-1,2-dihydro-pyrrolo[3,2,1-ij]quinolin-4-one], the MIC is ≤ 0.031 µg/mL.

As for `O=C1CSc2ccc(N3C[C@H](CCCN[C@@H]4CN5C(=O)CNc6ccc(F)c4c65)OC3=O)cc2N1` [Example 160, (S)-7-fluoro-6-{3-[(S)-2-oxo-3-(3-oxo-3,4-dihydro-2H-benzo[1,4]thiazin-6-yl)-oxazolidin-5-yl]-propylamino}-1,2,5,6-tetrahydro-pyrrolo[1,2,3-de]quinoxalin-3-one], the MIC was ≤ 0.031 µg/mL.

Consider `O=C1CSc2ccc(N3C[C@@H](CCCN[C@H]4CN5C(=O)CNc6ccc(F)c4c65)OC3=O)nc2N1` [Example 171, (R)-7-fluoro-6-{3-[(R)-2-oxo-3-(3-oxo-3,4-dihydro-2H-pyrido[3,2-b][1,4]thiazin-6-yl)-oxazolidin-5-yl]-propylamino}-1,2,5,6-tetrahydro-pyrrolo[1,2,3-de]quinoxalin-3-one], for which the MIC is ≤ 0.031 µg/mL.

Compound `O=C1CSc2ccc(N3C[C@H](CCNC[C@]4(O)Cn5c(=O)ccc6nccc4c65)OC3=O)cc2N1` [Example 173, (S)-4-hydroxy-4-({2-[(S)-2-oxo-3-(3-oxo-3,4-dihydro-2H-benzo[1,4]thiazin-6-yl)-oxazolidin-5-yl]-ethylamino}-methyl)-4,5-dihydro-pyrrolo[3,2,1-de][1,5]naphthyridin-7-one] showed an MIC of 0.125 µg/mL (≈ 0.253 µM).

As to `O=C1COc2ccc(N3C[C@H](CCCN[C@@H]4Cn5c(=O)ccc6ccc(F)c4c65)OC3=O)nc2N1` [Example 189, (S)-9-fluoro-1-{3-[(S)-2-oxo-3-(3-oxo-3,4-dihydro-2H-pyrido[3,2-b][1,4]oxazin-6-yl)-oxazolidin-5-yl]-propylamino}-1,2-dihydro-pyrrolo[3,2,1-ij]quinolin-4-one], the MIC was ≤ 0.031 µg/mL.

Take `O=C1COc2ccc(N3C[C@@H](CCCN[C@@H]4Cn5c(=O)ccc6ccc(F)c4c65)OC3=O)nc2N1` [Example 190, (S)-9-fluoro-1-{3-[(R)-2-oxo-3-(3-oxo-3,4-dihydro-2H-pyrido[3,2-b][1,4]oxazin-6-yl)-oxazolidin-5-yl]-propylamino}-1,2-dihydro-pyrrolo[3,2,1-ij]quinolin-4-one]: the MIC was ≤ 0.031 µg/mL.

As to `O=C1CSc2ccc(N3C[C@@H](CCCN[C@@H]4Cn5c(=O)ccc6ccc(F)c4c65)OC3=O)nc2N1` [Example 192, (S)-9-fluoro-1-{3-[(R)-2-oxo-3-(3-oxo-3,4-dihydro-2H-pyrido[3,2-b][1,4]thiazin-6-yl)-oxazolidin-5-yl]-propylamino}-1,2-dihydro-pyrrolo[3,2,1-ij]quinolin-4-one], the MIC was ≤ 0.031 µg/mL.

Consider `O=C1COc2ccc(N3C[C@H](CCCN[C@H]4Cn5c(=O)ccc6ccc(F)c4c65)OC3=O)nc2N1` [Example 193, (R)-9-fluoro-1-{3-[(S)-2-oxo-3-(3-oxo-3,4-dihydro-2H-pyrido[3,2-b][1,4]oxazin-6-yl)-oxazolidin-5-yl]-propylamino}-1,2-dihydro-pyrrolo[3,2,1-ij]quinolin-4-one], for which the MIC is ≤ 0.031 µg/mL.

Still in this experiment, the particulars now being: strain A894.
As to `O=C1CSc2ccc(N3C[C@H](CCCN[C@@H]4Cn5c(=O)ccc6ccc(F)c4c65)OC3=O)nc2N1` [Example 191, (S)-9-fluoro-1-{3-[(S)-2-oxo-3-(3-oxo-3,4-dihydro-2H-pyrido[3,2-b][1,4]thiazin-6-yl)-oxazolidin-5-yl]-propylamino}-1,2-dihydro-pyrrolo[3,2,1-U]quinolin-4-one], the “MIC for M. catarrhalis A894” value is “≦0.031 mg/l”.
